Assay results published in patent publication US9902733B2, “Furopyridines as inhibitors of protein kinases” (MASARYKOVA UNIVERZITA, priority 2014, dated 2018).
pIC50: −log10 of the molar value.

Key:
Format in all cases: biochemical
HIPK2(h) = target: T1, HIPK2(h) (Homo sapiens, UniProt Q9H2X6); experiment: HIPK2 KinaseProfiler radiometric protein kinase assay; conditions: 10 μM ATP, 40 minutes at room temperature
T1 construct: purchased Merck Millipore (KinaseProfiler service)
Protocol: (§1) In vitro essays were performed by the company Merck Millipore in their KinaseProfiler radiometric protein kinase assay as paid commercial service. The compounds IC50 values for inhibition of individual protein kinases were determined. Dose-response curves were plotted from inhibition data generated, each in duplicate, from 10 point serial dilutions of inhibitory compounds. Concentration of compound was plotted against % kinase activity. To generate IC50 values, the dose-response curves were fitted to a standard sigmoidal curve and IC50 values were derived by standard nonlinear regression analysis.
(§2) All tested compounds were prepared in 100% DMSO to final assay concentrations either 0.5 mM (for the concentration row A, see below) or 0.05 mM (for the concentration row B). This working stock of the compound was added to the assay well as the first component in the reaction, followed by the remaining components as detailed below. The stock solution was added to the individual assay wells in such amounts that the concentrations of the compound were either in the row A (0.001 μM, 0.003 μM, 0.01 μM, 0.03 μM, 0.1 μM, 0.3 μM, 1.0 μM, 3.0 μM, and 10.0 μM) or in the row B (0.0001 μM, 0.0003 μM, 0.001 μM, 0.003 μM, 0.01 μM, 0.03 μM, 0.1 μM, 0.3 μM, and 1.0 μM). There was no pre-incubation step between the compound and the kinase prior to initiation of the reaction.
(§3) The positive control wells contained all components of the reaction, except the compound of interest; however, DMSO (at a final concentration of 2%) was included in these wells to control for solvent effects. The blank wells contained all components of the reaction, with staurosporine as a reference inhibitor replacing the compound of interest. This abolished kinase activity and established the base-line (0% kinase activity remaining).
HIPK2(h) was diluted in the buffer (20 mM MOPS, 1 mM EDTA, 0.01% Brij-35, 5% Glycerol, 0.1% β-mercaptoethanol, 1 mg/mL BSAs) to the concentration of 1.01 mg/mL prior to addition to the reaction mix.
(§4) The above stock solution of HIPK2(h) was added to a mixture containing 8 mM MOPS pH 7.0, 0.2 mM EDTA, and 0.33 mg/mL myelin basic protein in such amount that the resulting concentration of HIPK2(h) was 1.4 nM. This mixture was added to the stock solution of the tested compound. The reaction was initiated by the addition of the MgATP mix in such amount that the resulting concentration of Mg acetate in the reaction mixture was 10 mM and [γ-^33P-ATP] (specific activity approx. 500 cpm/pmol) was 10 μM. After incubation for 40 minutes at room temperature, the reaction was stopped by the addition of 3% phosphoric acid solution. 10 μL of the reaction was then spotted onto a P30 filtermat and washed three times for 5 minutes in 75 mM phosphoric acid and once in methanol prior to drying and scintillation counting.

HIPK1(h) = target: T2, HIPK1(h) (Homo sapiens, UniProt Q86Z02); experiment: HIPK1 KinaseProfiler radiometric protein kinase assay; conditions: 45 μM ATP, 40 minutes at room temperature
T2 construct: purchased Merck Millipore (KinaseProfiler service)
T2 sequence (Q86Z02 whole entry): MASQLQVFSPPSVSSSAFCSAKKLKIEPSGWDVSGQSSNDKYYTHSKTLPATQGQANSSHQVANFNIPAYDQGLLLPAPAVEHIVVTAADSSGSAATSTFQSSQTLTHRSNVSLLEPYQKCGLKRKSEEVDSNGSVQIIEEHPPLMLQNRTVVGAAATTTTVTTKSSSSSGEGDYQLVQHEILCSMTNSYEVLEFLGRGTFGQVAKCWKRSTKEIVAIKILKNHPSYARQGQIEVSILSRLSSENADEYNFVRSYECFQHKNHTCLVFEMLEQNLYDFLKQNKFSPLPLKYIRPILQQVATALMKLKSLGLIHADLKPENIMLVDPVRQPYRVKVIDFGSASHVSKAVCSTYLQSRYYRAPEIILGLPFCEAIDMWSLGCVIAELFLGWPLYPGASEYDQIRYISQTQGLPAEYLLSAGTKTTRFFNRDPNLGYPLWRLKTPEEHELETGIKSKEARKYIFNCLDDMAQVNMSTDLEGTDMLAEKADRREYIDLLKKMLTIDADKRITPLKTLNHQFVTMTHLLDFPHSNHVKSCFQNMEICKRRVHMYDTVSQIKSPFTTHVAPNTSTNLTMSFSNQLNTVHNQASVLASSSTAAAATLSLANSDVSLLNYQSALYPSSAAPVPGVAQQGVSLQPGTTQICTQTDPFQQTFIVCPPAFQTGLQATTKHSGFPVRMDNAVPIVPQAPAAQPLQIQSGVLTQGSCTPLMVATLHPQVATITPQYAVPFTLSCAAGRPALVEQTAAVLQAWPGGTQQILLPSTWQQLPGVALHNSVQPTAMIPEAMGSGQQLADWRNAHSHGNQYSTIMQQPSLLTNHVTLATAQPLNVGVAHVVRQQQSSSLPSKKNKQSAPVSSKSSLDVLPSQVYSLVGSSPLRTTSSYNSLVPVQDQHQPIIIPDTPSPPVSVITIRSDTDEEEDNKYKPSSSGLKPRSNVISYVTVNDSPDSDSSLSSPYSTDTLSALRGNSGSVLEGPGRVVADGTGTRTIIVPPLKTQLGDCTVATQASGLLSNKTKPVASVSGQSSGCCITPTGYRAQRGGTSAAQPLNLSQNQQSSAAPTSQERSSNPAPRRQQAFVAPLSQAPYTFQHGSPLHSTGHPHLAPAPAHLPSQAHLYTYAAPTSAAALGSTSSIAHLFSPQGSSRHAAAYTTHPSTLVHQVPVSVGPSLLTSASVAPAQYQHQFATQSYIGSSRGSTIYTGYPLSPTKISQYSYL
Protocol: as §1, §2, §3
HIPK1(h) was diluted in the buffer (20 mM MOPS, 1 mM EDTA, 0.01% Brij-35, 5% Glycerol, 0.1% β-mercaptoethanol, 1 mg/mL BSAs) to the concentration of 1.01 mg/mL prior to addition to the reaction mix.
as §4, with “solution of HIPK1(h) was added” for “solution of HIPK2(h) was added”, “concentration of HIPK1(h) was 4.7” for “concentration of HIPK2(h) was 1.4”, “HIPK1(h) was 4.7 nM. This” for “HIPK2(h) was 1.4 nM. This”, “cpm/pmol) was 45 μM. After” for “cpm/pmol) was 10 μM. After”

HIPK3(h) = target: T3, HIPK3(h) (Homo sapiens, UniProt Q9H422); experiment: HIPK3 KinaseProfiler radiometric protein kinase assay; conditions: 15 μM ATP, 40 minutes at room temperature
T3 construct: purchased Merck Millipore (KinaseProfiler service)
T3 sequence (Q9H422 whole entry): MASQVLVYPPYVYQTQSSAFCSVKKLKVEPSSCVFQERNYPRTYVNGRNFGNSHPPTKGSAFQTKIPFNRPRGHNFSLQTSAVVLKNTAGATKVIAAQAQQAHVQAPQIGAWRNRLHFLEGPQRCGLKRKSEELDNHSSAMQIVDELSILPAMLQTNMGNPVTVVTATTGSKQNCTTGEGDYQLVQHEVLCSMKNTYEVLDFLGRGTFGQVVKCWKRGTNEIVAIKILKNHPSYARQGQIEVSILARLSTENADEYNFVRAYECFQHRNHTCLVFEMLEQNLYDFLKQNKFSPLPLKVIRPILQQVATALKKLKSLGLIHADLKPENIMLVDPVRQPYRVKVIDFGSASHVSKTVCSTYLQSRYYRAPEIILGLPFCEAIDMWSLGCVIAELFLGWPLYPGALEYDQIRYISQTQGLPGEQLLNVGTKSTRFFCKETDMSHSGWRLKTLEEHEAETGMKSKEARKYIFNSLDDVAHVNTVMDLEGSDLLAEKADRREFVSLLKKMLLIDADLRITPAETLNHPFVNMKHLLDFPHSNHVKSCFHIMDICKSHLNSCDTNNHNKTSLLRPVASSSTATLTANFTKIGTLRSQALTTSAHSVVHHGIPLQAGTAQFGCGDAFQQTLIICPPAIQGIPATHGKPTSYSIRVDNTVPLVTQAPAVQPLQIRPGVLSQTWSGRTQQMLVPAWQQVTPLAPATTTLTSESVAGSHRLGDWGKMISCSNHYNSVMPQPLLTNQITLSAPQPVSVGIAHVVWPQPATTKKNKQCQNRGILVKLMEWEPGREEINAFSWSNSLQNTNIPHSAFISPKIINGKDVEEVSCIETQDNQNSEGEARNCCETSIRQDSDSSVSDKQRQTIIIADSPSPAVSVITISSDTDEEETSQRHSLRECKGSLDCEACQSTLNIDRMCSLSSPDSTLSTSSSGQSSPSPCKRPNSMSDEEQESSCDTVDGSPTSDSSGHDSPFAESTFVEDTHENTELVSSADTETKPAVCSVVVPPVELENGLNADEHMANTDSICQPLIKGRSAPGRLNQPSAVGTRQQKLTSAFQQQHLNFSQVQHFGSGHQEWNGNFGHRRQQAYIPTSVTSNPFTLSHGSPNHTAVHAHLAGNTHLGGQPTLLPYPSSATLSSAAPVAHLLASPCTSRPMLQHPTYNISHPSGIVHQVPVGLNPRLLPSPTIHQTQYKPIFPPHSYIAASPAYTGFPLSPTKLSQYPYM
Protocol: as §1, §2, §3
HIPK3(h) was diluted in the buffer (20 mM MOPS, 1 mM EDTA, 0.01% Brij-35, 5% Glycerol, 0.1% β-mercaptoethanol, 1 mg/mL BSAs) to the concentration of 1.01 mg/mL prior to addition to the reaction mix.
The above stock solution of HIPK3(h) was added to a mixture containing 8 mM MOPS pH 7.0, 0.2 mM EDTA, and 1.0 mg/mL myelin basic protein in such amount that the resulting concentration of HIPK3(h) was 6.4 nM. This mixture was added to the stock solution of the tested compound. The reaction was initiated by the addition of the MgATP mix in such amount that the resulting concentration of Mg acetate in the reaction mixture was 10 mM and [γ-^33P-ATP] (specific activity approx. 500 cpm/pmol) was 15 μM. After incubation for 40 minutes at room temperature, the reaction was stopped by the addition of 3% phosphoric acid solution. […]

DYRK2 = target: T4, DYRK2 (Homo sapiens, UniProt Q92630); experiment: DYRK2 KinaseProfiler radiometric protein kinase assay
T4 construct: purchased Merck Millipore (KinaseProfiler service)
T4 sequence (Q92630 1-601): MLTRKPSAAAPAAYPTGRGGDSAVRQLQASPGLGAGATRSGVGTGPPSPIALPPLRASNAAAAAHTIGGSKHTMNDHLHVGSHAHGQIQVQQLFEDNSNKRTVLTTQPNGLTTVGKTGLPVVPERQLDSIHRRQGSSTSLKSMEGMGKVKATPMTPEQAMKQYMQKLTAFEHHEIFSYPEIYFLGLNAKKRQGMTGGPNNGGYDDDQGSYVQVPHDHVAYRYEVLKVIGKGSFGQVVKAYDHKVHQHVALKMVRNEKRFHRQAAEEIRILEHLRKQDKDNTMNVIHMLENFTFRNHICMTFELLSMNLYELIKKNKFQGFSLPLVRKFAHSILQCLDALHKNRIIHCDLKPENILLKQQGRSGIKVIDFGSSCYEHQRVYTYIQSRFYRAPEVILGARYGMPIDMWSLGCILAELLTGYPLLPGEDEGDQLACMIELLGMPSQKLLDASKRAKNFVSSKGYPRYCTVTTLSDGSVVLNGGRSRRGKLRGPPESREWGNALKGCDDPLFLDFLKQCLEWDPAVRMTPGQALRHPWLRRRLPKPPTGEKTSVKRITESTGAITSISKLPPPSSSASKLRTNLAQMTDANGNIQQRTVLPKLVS
Protocol: as §1, §2, §3

T1 sequence (Q9H2X6 whole entry): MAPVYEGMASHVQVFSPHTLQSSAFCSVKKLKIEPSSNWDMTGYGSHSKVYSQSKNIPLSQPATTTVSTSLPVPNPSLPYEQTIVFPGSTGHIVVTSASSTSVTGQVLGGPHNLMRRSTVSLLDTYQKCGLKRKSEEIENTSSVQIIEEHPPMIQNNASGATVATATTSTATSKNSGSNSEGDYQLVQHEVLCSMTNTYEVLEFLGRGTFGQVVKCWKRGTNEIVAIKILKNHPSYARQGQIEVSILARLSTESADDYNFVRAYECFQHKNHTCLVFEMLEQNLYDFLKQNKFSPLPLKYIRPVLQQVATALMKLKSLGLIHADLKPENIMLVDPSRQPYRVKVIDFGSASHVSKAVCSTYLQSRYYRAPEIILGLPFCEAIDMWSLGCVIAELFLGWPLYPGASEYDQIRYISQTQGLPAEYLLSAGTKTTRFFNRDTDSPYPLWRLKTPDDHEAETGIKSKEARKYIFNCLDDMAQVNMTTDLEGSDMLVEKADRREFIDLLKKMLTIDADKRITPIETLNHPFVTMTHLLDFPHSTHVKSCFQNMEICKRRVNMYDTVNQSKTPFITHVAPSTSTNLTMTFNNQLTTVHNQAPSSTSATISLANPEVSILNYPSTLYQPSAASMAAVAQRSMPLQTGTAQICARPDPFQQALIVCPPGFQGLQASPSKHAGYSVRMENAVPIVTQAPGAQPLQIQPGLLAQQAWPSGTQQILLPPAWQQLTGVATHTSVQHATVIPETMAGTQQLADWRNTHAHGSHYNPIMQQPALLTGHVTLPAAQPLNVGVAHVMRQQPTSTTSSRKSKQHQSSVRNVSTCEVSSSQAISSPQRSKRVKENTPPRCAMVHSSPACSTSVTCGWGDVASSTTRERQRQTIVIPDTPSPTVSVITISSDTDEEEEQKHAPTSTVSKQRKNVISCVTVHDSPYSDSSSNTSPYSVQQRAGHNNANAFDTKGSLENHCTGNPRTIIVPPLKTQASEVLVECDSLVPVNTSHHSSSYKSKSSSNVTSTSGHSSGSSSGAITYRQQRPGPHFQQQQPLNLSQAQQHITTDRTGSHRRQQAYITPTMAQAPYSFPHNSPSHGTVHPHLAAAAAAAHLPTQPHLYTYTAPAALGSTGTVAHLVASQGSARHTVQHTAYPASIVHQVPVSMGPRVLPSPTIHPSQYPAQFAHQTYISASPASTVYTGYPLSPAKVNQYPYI

| pIC50 (HIPK2(h)) | pIC50 (HIPK1(h)) | pIC50 (HIPK3(h)) | pIC50 (DYRK2) | SMILES |
| --- | --- | --- | --- | --- |
| > 6.00 | > 6.00 | > 5.30 | > 5.30 | Cn1cc(-c2ccc3occ(-c4ccccc4)c3n2)cn1 [Preparative Example 6A] |
| > 7.00 | > 7.00 | > 6.00 | > 5.30 | c1ccc(-c2coc3ccc(-c4cn[nH]c4)nc23)cc1 [Preparative Example 9] |
